Tests used:
[1] = system: Toxoplasma tachyzoites mitochondrion; experiment: Toxoplasma mitochondrial membrane potential (MitoTracker, cytometry and microscopy); format: cell-based, Toxoplasma gondii; conditions: 24 h at 3× EC50; for Mitotracker staining of T. gondii, microscopic observation: FCCP as uncoupler control
Method: We used the MitoTracker Deep Red FM fluorescent probe (Invitrogen) to assess the mitochondrial membrane potential in Toxoplasma tachyzoites. […] After another 24 h of culture at 37 °C and 5% CO2, Mitotracker labeling was performed as described in the protocol provided by the manufacturer, with a 45 min incubation at 37 °C and 5% CO2 of the reconstituted dye diluted to 1/1000 in culture medium. Parasites were then fixed for 30 min in 4% (w/v) PFA (diluted in PBS), washed twice in PBS, scraped, syringed (with a 25 G needle), filtered on a 40 μm membrane, and resuspended in 1 mL of PBS. Parasites were then analyzed with an Aurora spectral cytometer (Cytek), using a 633 nm excitation laser and a 665 nm detector. 10,000 events were recorded. Mean fluorescence was plotted against vehicle-treated culture parasites using Prism 8.0 (GraphPad Software), and statistical significance was determined using one-way ANOVA with Tukey’s multiple-comparison test. The experiment was performed for three biologically independent replicates. For the membrane depolarization control, parasites were treated with 10 μM FCCP for 30 min prior to and during incubation with the Mitotracker dye.
Intracellular parasites and the host cell monolayer were then fixed 24 h later with 4% (w/v) PFA (diluted in PBS) for 20 min, and after fixation, cells were permeabilized with 0.3% (v/v) Triton X-100 (diluted in PBS) for 10 min. Costaining with the anti-F1β ATPase mitochondrial marker was performed as described below.

Human BJ Fibroblast = experiment: Drug sensitivity assay, dose–response curves, human BJ fibroblasts; format: cell-based; conditions: mean, n ≥ 3
Excerpt: (§1) Human fibroblasts, T. brucei, T. gambiense, P. falciparum, L. mexicana, and B. divergens were cultivated as described previously, and dose–response curves were obtained by their cultivation on 96 well plates in a 2-fold seriel dilution of the appropriate drug.

[2] = system: Trypanosoma brucei bloodstream forms; experiment: Drug sensitivity assay, dose–response curves, T. brucei; format: cell-based; conditions: for EC50: bloodstream forms, mean, n ≥ 3; for T. brucei selectivity: relative to human BJ fibroblast EC50
Excerpt: as §1

T. gondii mitochondrion = experiment: Toxoplasma immunofluorescence assay of organelle morphology; format: cell-based, Toxoplasma gondii; conditions: 24 h at 3× EC50; DFX at 60 nM
Method: For IFAs to assess organelle morphology, coverslips seeded with HFFs were infected with T. gondii tachyzoites, and 3 h later, compounds were added (at 3 times their respective EC50). Intracellular parasites and host cell monolayers were then fixed 24 h later with 4% (w/v) PFA (diluted in PBS) for 20 min. After fixation, cells were permeabilized with 0.3% (v/v) Triton X-100 (diluted in PBS) for 10 min. Coverslips were blocked with 2% (w/v) bovine serum albumin (BSA) for 1 h prior to immunolabeling with a primary antibody for 1 h. After 3 washes in PBS, a corresponding secondary antibody was incubated for 1 h. Coverslips were then incubated with 1 μg/mL of Hoechst stain for 5 min before 3 washes in PBS and, finally, mounted using Immu-Mount (Thermo Fisher) onto microscope slides. Primary antibodies used were prepared in 2% BSA (diluted in PBS) and used at the following concentrations: the apicoplast was stained using rabbit anti-PDH-E2 (1:500), the mitochondrion was stained using mouse anti-F1β ATPase (1:1000, gift of P. Bradley). Anti-mouse and anti-rabbit secondary antibodies were all from Thermo Fisher and were diluted at 1:4000. Image acquisition was performed with a Zeiss Axio Observer inverted microscope equipped with a Zeiss Axiocam 712 camera and 63×/1.4 or 100×/1.4 Oil Plan Achromat objectives. Images were processed with Zen Blue v3.6 software (Zeiss). Z-stack acquisitions were processed by a maximum-intensity orthogonal projection. Adjustments of brightness and contrast were applied uniformly, and paired images were acquired with the same exposure time. Quantifications of mitochondrial morphology were performed by microscopic observation of a series of at least 100 parasites, and data from three independent biological replicates was acquired and plotted using Prism 8.0 (GraphPad Software). Statistical significance was determined using one-way ANOVA with Tukey’s multiple-comparison test.

[3] = system: Babesia divergens intracellular stages; experiment: Drug sensitivity assay, dose–response curves, B. divergens; format: cell-based
Excerpt: as §1

[4] = system: Trypanosoma gambiense bloodstream forms; experiment: Drug sensitivity assay, dose–response curves, T. gambiense; format: cell-based
Excerpt: as §1

[5] = system: T. brucei 427 bloodstream form mitochondria; experiment: Mitochondrial membrane potential in T. brucei (TMRE, flow cytometry); format: cell-based, Trypanosoma brucei; conditions: 24 h at 3× EC50
Method: The mitochondrial membrane potential of T. brucei 427 bloodstream form was assessed using the fluorescent probe TMRE (Thermo Fisher Scientific) as described in ref . […] Untreated cells and cells preincubated with a 50 μM CCCP uncoupler for 30 min were used as negative and positive controls, respectively. Approximately 1 × 10^6 cells were incubated with 60 nM TMRE for 30 min, washed 1× with sterile PBS, and 5,000 events were measured on a Guava EasyCyte 8HT flow cytometer (Luminex) using a 488 nm excitation laser and a 583/26 nm detector. Median fluorescence was plotted against an untreated culture using Prism 8.0 (GraphPad Software), and statistical significance was determined using RM one-way ANOVA with Geisser–Greenhouse correction. The experiment was performed in three biologically independent replicates.

[6] = system: Plasmodium falciparum intracellular stages; experiment: Drug sensitivity assay, dose–response curves, P. falciparum; format: cell-based
Excerpt: as §1

[7] = system: Toxoplasma gondii tachyzoites (RH strain), intracellular stages; experiment: T. gondii lytic cycle plaque assay in HFF monolayers; format: cell-based
Method: T. gondii tachyzoites of the RH strain were routinely maintained through passages in a human foreskin fibroblasts (HFFs) monolayer (ATCC CRL-1634). HFFs and parasites were cultured in standard Dulbecco’s Modified Eagle Medium (DMEM), supplemented with 5% decomplemented fetal bovine serum (FBS), 2 mM L-glutamine, 100 U/mL penicillin, and 100 μg/mL streptomycin (Gibco) at 37 °C and with 5% CO2 in an incubator with a controlled atmosphere.
The lytic cycle of T. gondii tachyzoites was assessed by a plaque assay as described previously. Briefly, tachyzoites were allowed to invade monolayers of HFFs for 3 h before addition of the compounds or the DMSO vehicle and were subsequently cultivated for 7 days at 37 °C and 5% CO2. They were then fixed with 4% (w/v) paraformaldehyde (PFA, diluted in phosphate-buffered saline (PBS)) for 20 min and stained with a 0.1% crystal violet solution (V5265, Sigma-Aldrich), washed, and air-dried before imaging under an Olympus MVX10 microscope.
Figure S1. EC50 determination of selected compounds in Toxoplasma.
B) EC50 curves based on plaque
area measured from three independent plaque assays. Data are mean ± standard deviation. C)
vacuoles were counted for each con dition. Values represented are mean ± standard deviation of […]

[8] = system: Leishmania mexicana axenic amastigotes; experiment: Drug sensitivity assay, dose–response curves, L. mexicana; format: cell-based
Excerpt: as §1

[9] = intracellular stages, mean, n ≥ 3

Row | Compound | EC50 (Human BJ Fibroblast) [nM] | EC50 [2] [nM] | T. brucei selectivity [2] | also measured
1 | N#CC(C#N)=NNc1ccc(OC(F)(F)F)cc1 [FCCP, carbonyl cyanide p-trifluoromethoxyphenylhydrazone, reference compound] |  |  |  | Mitotracker staining of T. gondii, microscopic observation [1]: diffuse Mitotracker signal
2 | CC(=O)N(O)CCCCCNC(=O)CCC(=O)N(O)CCCCCNC(=O)CCC(=O)N(O)CCCCCNCCCCCCCCCC[P+](c1ccccc1)(c1ccccc1)c1ccccc1 [compound 1, triphenylphosphine-C10-DFO] | > 25000 | 882 |  | 
3 | CC(=O)N(O)CCCCCNC(=O)CCC(=O)N(O)CCCCCNC(=O)CCC(=O)N(O)CCCCCN(CCCCCCCCCC[P+](c1ccccc1)(c1ccccc1)c1ccccc1)CCCCCCCCCC[P+](c1ccccc1)(c1ccccc1)c1ccccc1.[Cl-].[Cl-] [compound 2, (triphenylphosphine-C10)2-DFO] | 8910 | 56.9 | 156 | 
4 | CC(=O)N(O)CCCCCNC(=O)CCC(=O)N(O)CCCCCNC(=O)CCC(=O)N(O)CCCCCN(CCCCCCCCCCCC[P+](c1ccccc1)(c1ccccc1)c1ccccc1)CCCCCCCCCCCC[P+](c1ccccc1)(c1ccccc1)c1ccccc1.Cl.[Cl-].[Cl-] [compound 6, (triphenylphosphine-C12)2-DFO] | 3630 | 73.1 | 50 | 
5 | CC(=O)N(O)CCCCCNC(=O)CCC(=O)N(O)CCCCCNC(=O)CCC(=O)N(O)CCCCCN(CCCCCCCCCC[P+](Cc1ccccc1)(Cc1ccccc1)Cc1ccccc1)CCCCCCCCCC[P+](Cc1ccccc1)(Cc1ccccc1)Cc1ccccc1.Cl.[Cl-].[Cl-] [compound 7, (tribenzylphosphine-C10)2-DFO] | 2550 | 186 | 14 | 
6 | CCCCCCCC[P+](CCCCCCCC)(CCCCCCCC)CCCCCCCCCCN(CCCCCCCCCC[P+](CCCCCCCC)(CCCCCCCC)CCCCCCCC)CCCCCN(O)C(=O)CCC(=O)NCCCCCN(O)C(=O)CCC(=O)NCCCCCN(O)C(C)=O.Cl.[Cl-].[Cl-] [compound 8, (trioctylphosphine-C10)2-DFO] | 2920 | 134 | 22 | 
7 | Oc1ccccc1-c1nc(-c2ccccc2O)n(CCCCCCCCCC[P+](c2ccccc2)(c2ccccc2)c2ccccc2)n1.[Br-] [compound 11, triphenylphosphineBr-C10-norbenzoic-DFX] | 2110 | 5.5 | > 300 | morphology of the T. gondii mitochondrion (T. gondii mitochondrion): altered the morphology of the organelle; EC50 [3, 9]: 17.2 nM; B. divergens selectivity ([3]; relative to fibroblasts): 122; EC50 ([4]; bloodstream forms, mean, n ≥ 3): 7.5 nM; T. gambiense selectivity ([4]; relative to fibroblasts): 282; mitochondrial membrane potential of T. brucei (relative to untreated) [5]: less than 50%; EC50 [6, 9]: 238 nM; P. falciparum selectivity ([6]; relative to fibroblasts): 9; Mitotracker staining of T. gondii, microscopic observation [1]: strong decrease in Mitotracker staining; EC50 ([7]; intracellular stages, plaque assay in HFFs, 7 days, n ≥ 3): 5 nM; T. gondii selectivity ([7]; relative to fibroblasts): 422; EC50 ([8]; axenic amastigotes, mean, n ≥ 3): 132 nM; L. mexicana selectivity ([8]; relative to fibroblasts): 16
8 | O=C(NCCCCCCCC[P+](c1ccccc1)(c1ccccc1)c1ccccc1)c1ccc(-n2nc(-c3ccccc3O)nc2-c2ccccc2O)cc1.[Cl-] [compound 12, triphenylphosphine-C8-DFX] | 1970 | 35.8 | 55 | 
9 | O=C(NCCCCCC[P+](c1ccccc1)(c1ccccc1)c1ccccc1)c1ccc(-n2nc(-c3ccccc3O)nc2-c2ccccc2O)cc1.[Cl-] [compound 13, triphenylphosphine-C6-DFX] | 15000 | 49.8 | 302 | 
10 | CC(=O)N(O)CCCCCNC(=O)CCC(=O)N(O)CCCCCNC(=O)CCC(=O)N(O)CCCCCN [compound 16, deferoxamine, reference compound] | > 25000 |  |  | EC50 ([2]; Trypanosoma brucei): > 25000 nM
11 | O=C(O)c1ccc(-n2nc(-c3ccccc3O)nc2-c2ccccc2O)cc1 [compound 17, deferasirox, reference compound] | > 25000 |  |  | morphology of the T. gondii mitochondrion (T. gondii mitochondrion): largely preserved; EC50 ([2]; Trypanosoma brucei): 8790 nM; T. gondii mitochondrial membrane potential, flow cytometric quantification of Mitotracker labeling ([1]; DFX at 60 nM): no specific impact
12 | (dimethylphenylphosphine-C10)2-DFO [compound 9] | > 25000 | 1150 |  | decrease in antiparasitic activity compared with compound 2 ([2]; T. brucei): ~20 fold
13 | (tributylamine-C10)2-DFO [compound 3] | 8140 | 73.6 | 111 | 
14 | (tributylphosphine-C10)2-DFO [compound 4] | 2840 | 281 | 10 | 
15 | (tricylohexylphosphine-C10)2-DFO [compound 5] | 3080 | 52 | 59 | 
16 | (triphenylphosphine-C10-triazole)2-DFO [compound 10] | 4130 | 134 | 31 | 
